From patent publication US20120172359A1 (NOVARTIS AG, priority 2010, published 2012)
Structures can show the parent of a compound that is named as a salt.

Each compound was assayed against Human BACE-1 (Homo sapiens, UniProt P56817) (assay: Test 1: Inhibition of Human BACE-1). Details: Test 1; recombinant BACE-1 (extracellular domain), acetate buffer pH 4.5, 1 hour with test compound at room temperature, fluorescence-quenched peptide substrate; read-out: Bace IC50.
Format: biochemical

Human BACE-1, sequence (P56817 46-457 limits assumed): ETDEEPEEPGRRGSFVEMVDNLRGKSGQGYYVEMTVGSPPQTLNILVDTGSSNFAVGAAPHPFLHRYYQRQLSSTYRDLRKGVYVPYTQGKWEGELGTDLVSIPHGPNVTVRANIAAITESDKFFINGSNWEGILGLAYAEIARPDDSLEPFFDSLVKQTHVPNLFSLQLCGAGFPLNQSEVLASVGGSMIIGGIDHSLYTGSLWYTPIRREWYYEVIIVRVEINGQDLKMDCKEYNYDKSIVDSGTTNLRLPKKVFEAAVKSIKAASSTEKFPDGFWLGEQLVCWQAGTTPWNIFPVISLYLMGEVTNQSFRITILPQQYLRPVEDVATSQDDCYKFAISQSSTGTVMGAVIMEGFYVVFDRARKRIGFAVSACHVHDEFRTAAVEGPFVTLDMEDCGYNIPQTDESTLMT

Row | SMILES | IC50 [nM]
1 | NC1=NC(CF)(c2cc(NC(=O)c3ccc(Br)cn3)ccc2F)COC1 (centres unmarked) [Example 86, 5-Bromo-pyridine-2-carboxylic acid [3-(5-amino-3-fluoromethyl-3,6-dihydro-2H-[1,4]oxazin-3-yl)-4-fluoro-phenyl]-amide hydrochloride] | 44
2 | NC1=NC(CF)(c2cc(NC(=O)c3ccc(Cl)cn3)ccc2F)COC1 (centres unmarked) [Example 87, 5-Chloro-pyridine-2-carboxylic acid [3-(5-amino-3-fluoromethyl-3,6-dihydro-2H-[1,4]oxazin-3-yl)-4-fluoro-phenyl]-amide hydrochloride] | 57
3 | NC1=NC(CF)(c2cc(NC(=O)c3ncc(Cl)cc3Cl)ccc2F)COC1 (centres unmarked) [Example 88, 3,5-Dichloro-pyridine-2-carboxylic acid [3-(5-amino-3-fluoromethyl-3,6-dihydro-2H-[1,4]oxazin-3-yl)-4-fluoro-phenyl]-amide hydrochloride] | 33
4 | N#Cc1ccc(C(=O)Nc2ccc(F)c(C3(CF)COCC(N)=N3)c2)nc1 (centres unmarked) [Example 89, 5-Cyano-pyridine-2-carboxylic acid [3-(5-amino-3-fluoromethyl-3,6-dihydro-2H-[1,4]oxazin-3-yl)-4-fluoro-phenyl]-amide hydrochloride] | 94
5 | Cc1cc(Br)cnc1C(=O)Nc1ccc(F)c(C2(CF)COCC(N)=N2)c1 (centres unmarked) [Example 90, 5-Bromo-3-methyl-pyridine-2-carboxylic acid [3-(5-amino-3-fluoromethyl-3,6-dihydro-2H-[1,4]oxazin-3-yl)-4-fluoro-phenyl]-amide hydrochloride] | 39
6 | Cc1cc(Br)cnc1C(=O)Nc1ccc(F)c([C@]2(CF)COCC(N)=N2)c1 [Example 91, 5-Bromo-3-methyl-pyridine-2-carboxylic acid [3-((R)-5-amino-3-fluoromethyl-3,6-dihydro-2H-[1,4]oxazin-3-yl)-4-fluoro-phenyl]-amide hydrochloride] | 15
7 | Cc1cc(Cl)cnc1C(=O)Nc1ccc(F)c([C@]2(CF)COCC(N)=N2)c1 [Example 92, 5-Chloro-3-methyl-pyridine-2-carboxylic acid [3-((R)-5-amino-3-fluoromethyl-3,6-dihydro-2H-[1,4]oxazin-3-yl)-4-fluoro-phenyl]-amide] | 5
8 | Cl.[2H]c1nc(C(=O)Nc2ccc(F)c([C@]3(CF)COCC(N)=N3)c2)c(C([2H])([2H])[2H])c([2H])c1Cl [Example 93, 5-Chloro-4,6-dideutero-3-trideuteromethyl-pyridine-2-carboxylic acid [3-((R)-5-amino-3-fluoromethyl-3,6-dihydro-2H-[1,4]oxazin-3-yl)-4-fluoro-phenyl]-amide hydrochloride] | 8
9 | NC1=N[C@](CF)(c2cc(NC(=O)c3ncc(Br)cc3O)ccc2F)COC1 [Example 94, 5-Bromo-3-hydroxy-pyridine-2-carboxylic acid [3-((R)-5-amino-3-fluoromethyl-3,6-dihydro-2H-[1,4]oxazin-3-yl)-4-fluoro-phenyl]-amide hydrochloride] | 22
10 | COc1cc(Br)cnc1C(=O)Nc1ccc(F)c([C@]2(CF)COCC(N)=N2)c1 [Example 95, 5-Bromo-3-methoxy-pyridine-2-carboxylic acid [3-((R)-5-amino-3-fluoromethyl-3,6-dihydro-2H-[1,4]oxazin-3-yl)-4-fluoro-phenyl]-amide] | 390
11 | NC1=N[C@@](c2cc(NC(=O)c3ccc(Br)cn3)ccc2F)(C(F)F)CCOC1 [Example 97, 5-Bromo-pyridine-2-carboxylic acid[3-((S)-3-amino-5-difluoromethyl-2,5,6,7-tetrahydro-[1,4]oxazepin-5-yl)-4-fluoro-phenyl]-amide hydrochloride] | 18
12 | N#Cc1ccc(C(=O)Nc2ccc(F)c(C3(C(F)(F)F)CCOCC(N)=N3)c2)nc1 (centres unmarked) [Example 98, 5-Cyano-pyridine-2-carboxylic acid [3-(3-amino-5-trifluoromethyl-2,5,6,7-tetrahydro-[1,4]oxazepin-5-yl)-4-fluoro-phenyl]-amide hydrochloride] | 240
13 | CC1(c2cc(NC(=O)c3ccc(Br)cn3)ccc2F)N=C(N)COCC1(F)F (centres unmarked) [Example 101, 5-Bromo-pyridine-2-carboxylic acid [3-(3-amino-6,6-difluoro-5-methyl-2,5,6,7-tetrahydro-[1,4]oxazepin-5-yl)-4-fluoro-phenyl]-amide] | 30
14 | NC1=NC(c2cccc(NC(=O)c3cc(Br)co3)c2)(C(F)F)COC1 (centres unmarked) [Example 102, 4-Bromo-furan-2-carboxylic acid [3-(5-amino-3-difluoromethyl-3,6-dihydro-2H-[1,4]oxazin-3-yl)-phenyl]-amide hydrochloride] | 890
15 | NC1=NC(c2cccc(NC(=O)c3ccc(O)nn3)c2)(C(F)F)COC1 (centres unmarked) [Example 103, 6-Hydroxy-pyridazine-3-carboxylic acid [3-(5-amino-3-difluoromethyl-3,6-dihydro-2H-[1,4]oxazin-3-yl)-phenyl]-amide hydrochloride] | 7800
16 | CCc1nc(C(=O)Nc2cccc(C3(C(F)F)COCC(N)=N3)c2)co1 (centres unmarked) [Example 105, 2-Ethyl-oxazole-4-carboxylic acid [3-(5-amino-3-difluoromethyl-3,6-dihydro-2H-[1,4]oxazin-3-yl)-phenyl]-amide hydrochloride] | 5200
17 | Cc1nc(C(=O)Nc2cccc(C3(C(F)F)COCC(N)=N3)c2)c(C)o1 (centres unmarked) [Example 106, 2,5-Dimethyl-oxazole-4-carboxylic acid [3-(5-amino-3-difluoromethyl-3,6-dihydro-2H-[1,4]oxazin-3-yl)-phenyl]-amide hydrochloride] | 4000
18 | COc1cc(Br)cnc1C(=O)Nc1cccc(C2(C(F)F)COCC(N)=N2)c1 (centres unmarked) [Example 107, 5-Bromo-3-methoxy-pyridine-2-carboxylic acid [3-(5-amino-3-difluoromethyl-3,6-dihydro-2H-[1,4]oxazin-3-yl)-phenyl]-amide hydrochloride] | 820
19 | NC1=NC(c2cccc(NC(=O)c3ncc(Br)cc3O)c2)(C(F)F)COC1 (centres unmarked) [Example 108, 5-Bromo-3-hydroxy-pyridine-2-carboxylic acid [3-(5-amino-3-difluoromethyl-3,6-dihydro-2H-[1,4]oxazin-3-yl)-phenyl]-amide hydrochloride] | 28
20 | COCCOc1cnc(C(=O)Nc2cccc(C3(C(F)F)COCC(N)=N3)c2)cn1 (centres unmarked) [Example 109, hydrochloride] | 1200
21 | NC1=NC(c2cccc(NC(=O)c3cnc(C(F)F)cn3)c2)(C(F)F)COC1 (centres unmarked) [Example 110, 5-Difluoromethyl-pyrazine-2-carboxylic acid [3-(5-amino-3-difluoromethyl-3,6-dihydro-2H-[1,4]oxazin-3-yl)-phenyl]-amide hydrochloride] | 1900
22 | NC1=N[C@@](c2cc(NC(=O)c3ncc(Cl)cc3Cl)ccc2F)(C(F)F)COC1 [Example 111, 3,5-Dichloro-pyridine-2-carboxylic acid [3-((R)-5-amino-3-difluoromethyl-3,6-dihydro-2H-[1,4]oxazin-3-yl)-4-fluoro-phenyl]-amide hydrochloride] | 25
23 | NC1=N[C@@](c2cc(NC(=O)c3ncc(F)cc3F)ccc2F)(C(F)F)COC1 [Example 113, 3,5-Difluoro-pyridine-2-carboxylic acid [3-((R)-5-amino-3-difluoromethyl-3,6-dihydro-2H-[1,4]oxazin-3-yl)-4-fluoro-phenyl]-amide hydrochloride] | 120
